The target of one assay is T1, rhomboid protease GlpG (Escherichia coli, UniProt P09391).
T1 construct: made in house; host or cells: E. coli C41(DE3)
Description: progress-curve analysis of slow-binding inhibition of GlpG (Ki, kon, koff, modality). It is filed as biochemical. Particulars: for Ki: true inhibitory constant, equals Kiapp (non-competitive); for koff: Table 1. On the procedure: Figure 4 Mechanism of Inhibition of Rhomboid Protease GlpG by Peptidyl Ketoamides Analyzed Using Fluorogenic Transmembrane Peptide Substrates (A) Progress curves in the presence of increasing concentrations of compound 10 show biphasic character, which is typical for slow-binding inhibitors ([Copeland, 2013a], [Morrison, 1982]). GlpG (0.5 nM) was incubated with 25 μM substrate KSp93 in the presence of 0.05% (w/v) DDM and 0–1,333 nM 10. Fluorescence at 493 nm was followed to monitor substrate cleavage. (B) Biphasic progress curves characterized by an initial reaction rate (vi) and steady state reaction rate (vs). The progress curve at 1,333 nM compound 10 from the experiment in (A) is shown in detail, and both reaction rates obtained from non-linear regression into Equation (1) are shown as dotted lines. (C) Reversibility of inhibition by ketoamides was assessed by the rapid dilution method ([Harper et al., 1985], [Harper and Powers, 1985]). […] This solution was then rapidly diluted 100-fold either into the reaction buffer containing 10 μM substrate KSp64 ([Ticha et al., 2017]) (yielding final 10 nM inhibitor) or into the reaction buffer with 10 μM substrate KSp64 and 1,000 nM 10. For comparison, we used β-lactam L29 ([Pierrat et al., 2011]) at 1 μM and isocoumarin JLK6 ([Vinothkumar et al., 2010]) at 10 μM as known reversible and irreversible inhibitors of rhomboid proteases, respectively. Activity recovery was followed by measuring fluorescence over the course of 120 min with excitation at 553 nm and emission at 583 nm. (D) Progress curves of KSp93 cleavage at increasing concentrations of 10 measured under (A) were analyzed by non-linear regression as described for slow-binding inhibition ([Copeland, 2013a], [Morrison, 1982]) using GraphPad Prism version 7.02 for Windows (GraphPad Software, La Jolla, California, USA) to yield the rate constant for the onset of inhibition, kobs. […] Michaelis curves at the indicated inhibitor concentrations were measured by plotting vS (measured as in Figure 4B) against substrate concentration using 1 nM GlpG, 0.15% (w/v) DDM and highly sensitive substrate KSp96. […] The apparent inhibitory constants Kiapp (blue-red striped columns) and the constituent rate constants kon (red columns) and koff (blue columns) were determined from progress curve analysis as shown in (A and C) (note that Kiapp = koff/kon). […] TEXT PRINTED IN THE PICTURE: (D) compound 10: Ki^app = (123±47) nM; kon = (3.4±0.2)·10^-5 (nM^-1·min^-1); koff = (4.2±1.4)·10^-3 (min^-1) DOUBTS OF THE COPYIST ABOUT THIS PICTURE: compound 10, kon: the exponent is in very small print, read as -5 but could be -6 or -8 / compound 10, koff: the exponent is in very small print, read as -3 but could be -5 […]

The subject of the next assay is MjROM. Description: activity-based probe competition assay, rhomboid panel. It is filed as biochemical, Methanocaldococcus jannaschii. Conditions: 50 μM and 0.5 μM; outcompeted the ABP even at 500 nM. An excerpt: (§1) Any enzyme inhibitors to be used as specific tools for cell biology or as starting points for drug development must show sufficient level of selectivity toward their intended target. This is particularly important for compounds that react with the catalytic nucleophile common to many serine hydrolases. […] To map the selectivity of peptidyl ketoamides more objectively and widely, we employed activity-based probe (ABP) competition assays that enable a more general and substrate-independent measurement of inhibitory potency, because they rely solely on the competition between a fluorescently labeled activity-based probe and the tested inhibitor ([Nguyen et al., 2015], [Serim et al., 2012]). […]
(§2) Figure 5 Selectivity of Peptidyl Ketoamides (A) Selectivity of compounds 9, 10, and 11 for nine rhomboid proteases was profiled using activity-based probe competition assay at 50 μM and 0.5 μM concentration. […] (B) Selectivity of compounds 9, 10, and 11 against human serine hydrolases was analyzed using EnPlex as described ([Bachovchin et al., 2014]).
(§3) For inhibitor selectivity profiling against rhomboid proteases ([Wolf et al., 2015]), 400 ng of a purified protein preparation of E. coli GlpG was diluted in 30 μL of reaction buffer (20 mM HEPES, pH 7.4, with 0.05% (w/v) DDM). […] Gels were scanned on a Typhoon Trio+ and analyzed using ImageJ. […]

A further assay relates to VcROM. The assay is described as above. It is filed as biochemical, Vibrio cholerae. Conditions: 50 μM and 0.5 μM; outcompeted the ABP even at 500 nM.
Source text: as §1, §2, §3

Values joined by “and” are separate entries in the source; they are usually repeats but may differ in a detail not shown here. Identical values can stand only once. Like-named read-outs stand apart in the source and are kept apart here. Starred links: 1 amine or outer side, 2 acyl side, 3 side chain; linkers in the order of their positions; H or OH if unused. Non-standard residues stand in square brackets, D forms with d. Residues, ends and D or L forms follow the SMILES beside them. *: point of attachment. NH(4-phenylbutyl) = c1ccc(CCCCN*)cc1; X1 = C[C@H](N[*:1])C(=O)C(=O)[*:2]; NHPhenethyl = c1ccc(CCN*)cc1

What is called koff is a measure of how fast the partners let go of each other. Low values mean a long-lived complex, high ones a short-lived complex.

T1 sequence (P09391 whole entry): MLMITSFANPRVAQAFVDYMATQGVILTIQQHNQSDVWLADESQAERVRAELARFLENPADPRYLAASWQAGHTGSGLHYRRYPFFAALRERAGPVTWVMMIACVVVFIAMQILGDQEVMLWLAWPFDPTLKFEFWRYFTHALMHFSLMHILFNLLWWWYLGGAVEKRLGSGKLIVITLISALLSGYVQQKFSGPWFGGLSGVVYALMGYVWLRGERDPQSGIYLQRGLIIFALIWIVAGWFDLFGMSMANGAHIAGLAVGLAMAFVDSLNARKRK

The molecule `CC(=O)N[C@@H](CCCNC(=N)N)C(=O)N[C@H](C(=O)N[C@@H](CCCNC(=N)N)C(=O)N[C@@H](Cc1c[nH]cn1)C(=O)N[C@@H](C)C(=O)C(=O)NCCCCc1ccccc1)C(C)C` [compound 11, Ac-RVRHA-CONH-phenylbutyl] (Ac-RVRH[X1]-{NH(4-phenylbutyl)}) gave a Ki on rhomboid protease GlpG (Ki) of 45 ± 8 nM. This molecule also gave a koff at rhomboid protease GlpG of 6.5e-05 s⁻¹. The “competition with ABP labeling of MjROM” value with MjROM is “potently competed”. In the assay with VcROM, the “competition with ABP labeling of VcROM” value is “potently competed”.

At rhomboid protease GlpG, `CC(=O)N[C@@H](CCCNC(=N)N)C(=O)N[C@H](C(=O)N[C@@H](CCCNC(=N)N)C(=O)N[C@@H](Cc1c[nH]cn1)C(=O)N[C@@H](C)C(=O)C(=O)NCCc1ccccc1)C(C)C` [compound 9, Ac-RVRHA-CONH-phenylethyl] (Ac-RVRH[X1]-NHPhenethyl) gave a dissociation rate constant (koff) of 0.0002 s⁻¹. The Ki at rhomboid protease GlpG (read-out: Ki) was 219 nM and 220 nM. Also, in the assay with MjROM, the “competition with ABP labeling of MjROM” value is given as “potently competed”. Further, in the assay on VcROM, the “competition with ABP labeling of VcROM” value is “potently competed”.
